# Target: T1, human 11β-HSD1 (Homo sapiens, UniProt P28845)
# T1 construct: truncated (24-287aa) human 11β-HSD1 enzyme; made in house; host or cells: E. coli (lysate, not purified)
# Assay: Human 11β-HSD1 enzymatic SPA assay
# Type: biochemical
# Conditions: truncated (24-287aa) human 11β-HSD1, apparent Ki from IC50 by Cheng-Prusoff
# Experimental: The ability of test compounds to inhibit human 11β-HSD1 enzymatic activity in vitro was evaluated in a Scintillation Proximity Assay (SPA). Tritiated-cortisone substrate, NADPH cofactor and titrated compound were incubated with truncated (24-287aa) human 11β-HSD1 enzyme at room temperature to allow the conversion to cortisol to occur. The reaction was stopped by adding a non-specific 11β-HSD inhibitor, glycyrrhetinic acid. The tritiated cortisol was captured by a mixture of an anti-cortisol monoclonal antibody and SPA beads coated with anti-mouse antibodies. The reaction plate was shaken at room temperature and the radiolabel bound to SPA beads was then measured on a scintillation counter. The 11β-HSD1 assay was carried out in 96-well microtiter plates in a total volume of […]. To start the assay, 188 μL of master mix which contained 75 nM ^3H-cortisone, 100 nM cortisone and 181 μM NADPH was added to the wells. In order to drive the reaction in the 11β-reductase direction, 1 mM glucose-6-phosphate (G-6-P) and 1 U/mL G-6-P dehydrogenase were also added as a NADPH generating system. Solid compound was dissolved in dimethyl sulfoxide to make a 10 mM stock followed by a subsequent 10-fold serial dilution with dimethyl sulfoxide. Each compound solution in dimethyl sulfoxide was 10-fold diluted in Tris/EDTA buffer (pH 7.4). 22 μL of titrated compound were then added in duplicate to the substrate. Reactions were initiated by the addition of 10 μL of 0.1 mg/mL E. coli lysates overexpressing 11β-HSD1 enzyme. After shaking and incubating plates for 30 minutes at room temperature, reactions were stopped by adding 10 μL of 1 mM glycyrrhetinic acid. The product, tritiated cortisol, was captured by adding 10 μL of 1 μM monoclonal mouse anti-cortisol antibodies and 50 μL of SPA beads coated with anti-mouse antibodies. After shaking for 30 minutes, plates were read in a Microbeta scintillation counter. Percent inhibition was calculated based on the background and the maximal signal. Wells that contained substrate without compound or enzyme were used as the background, while the wells that contained substrate and enzyme without any compound were considered as maximal signal. Percent of inhibition of each compound was calculated relative to the maximal signal and IC50 curves were generated. Assuming competitive inhibition the Cheng-Prusoff equation was used to calculate apparent Ki values from the IC50 values. This assay was applied to 11β-HSD2 as well, whereby 6 nM tritiated cortisol and 250 uM NAD^+ were used as substrate and cofactor, respectively.
# T1 sequence (P28845 24-287): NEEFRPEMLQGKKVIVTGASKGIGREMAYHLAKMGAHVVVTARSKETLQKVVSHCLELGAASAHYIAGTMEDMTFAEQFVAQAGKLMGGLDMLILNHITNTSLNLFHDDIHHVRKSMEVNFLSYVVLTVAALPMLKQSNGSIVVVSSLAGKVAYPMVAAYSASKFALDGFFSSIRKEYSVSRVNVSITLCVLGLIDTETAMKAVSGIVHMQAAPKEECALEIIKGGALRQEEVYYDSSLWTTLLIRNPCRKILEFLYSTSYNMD
row,Compound,Ki [nM]
1,"CC(C)(Oc1ccc(F)cc1Cl)C(=NC#N)NC1C2CC3CC1CC(O)(C3)C2 (stereo not drawn) [Example 1, (1E)-2-(2-Chloro-4-fluorophenoxy)-Y-cyano-N-[(E)-5-hydroxy-2-adamantyl]-2-methylpropanimidamide]",10 to 100
2,"Cc1ccccc1CC(=NC#N)NC1C2CC3CC1CC(O)(C3)C2 (stereo not drawn) [Example 2, (1E)-N-Cyano-N-[(E)-5-hydroxy-2-adamantyl]-2-(2-methylphenyl)ethanimidamide]",> 1000
3,"N#CN=C(NC1C2CC3CC1CC(O)(C3)C2)C1(c2ccc(Cl)cc2)CCC1 (stereo not drawn) [Example 3, 1-(4-Chlorophenyl)-N′-cyano-N-[(E)-5-hydroxy-2-adamantyl]cyclobutanecarboximidamide]",> 1000
4,"N#CN=C(Cc1ccc(F)cc1F)NC1C2CC3CC1CC(O)(C3)C2 (stereo not drawn) [Example 4, (1E)-N′-Cyano-2-(2,4-difluorophenyl)-N-[(E)-5-hydroxy-2-adamantyl]ethanimidamide]",> 1000
5,"N#C/N=C(\Cc1ccccc1F)N[C@@H]1[C@@H]2C[C@@H]3C[C@H]1C[C@@](O)(C3)C2 [Example 5, (1E)-N′-Cyano-2-(2-fluorophenyl)-N-[(E)-5-hydroxy-2-adamantyl]ethanimidamide]",> 1000
6,"N#CN=C(Cc1cccnc1Cl)NC1C2CC3CC1CC(O)(C3)C2 (stereo not drawn) [Example 6, (1E)-2-(2-Chloropyridin-3-yl)-N′-cyano-N-[(E)-5-hydroxy-2-adamantyl]ethanimidamide]",> 1000
7,"N#CN=C(COc1ccc(Cl)cc1)NC1C2CC3CC1CC(O)(C3)C2 (stereo not drawn) [Example 7, (1E)-2-(4-Chlorophenoxy)-N′-cyano-N-[(E)-5-hydroxy-2-adamantyl]ethanimidamide]",> 1000
8,"CC(C)(Oc1ccc(Cl)cc1)C(=NC#N)NC1C2CC3CC1CC(O)(C3)C2 (stereo not drawn) [Example 8, (1E)-2-(4-Chlorophenoxy)-N′-cyano-N-[(E)-5-hydroxy-2-adamantyl]-2-methylpropanimidamide]",≤ 10
9,"CC(C)(Oc1ccc(Cl)cc1)C(=S)NC1C2CC3CC1CC(S(C)(=O)=O)(C3)C2 (stereo not drawn) [Example 9, 2-(4-Chlorophenoxy)-2-methyl-N-[(E)-5-(methylsulfonyl)-2-adamantyl]propanethioamide]",10 to 100
10,"CC(C)(Oc1ccc(Cl)cc1)C(=NC#N)NC1C2CC3CC1CC(S(N)(=O)=O)(C3)C2 (stereo not drawn) [Example 10, (1E)-N-[(E)-5-(Aminosulfonyl)-2-adamantyl]-2-(4-chlorophenoxy)-N′-cyano-2-methylpropanimidamide]",100 to 1000
11,"COC(=O)C12CC3CC(C1)C(NC(=NC#N)C(C)(C)Oc1ccc(Cl)cc1)C(C3)C2 (stereo not drawn) [Example 11, Methyl(E)-4-{[(1E)-2-(4-chlorophenoxy)-N-cyano-2-methylpropanimidoyl]amino}adamantane-1-carboxylate]",100 to 1000
12,"CC(C)(Oc1ccc(F)cc1Cl)C(=S)N[C@@H]1[C@@H]2C[C@@H]3C[C@H]1C[C@@](S(C)(=O)=O)(C3)C2 [Example 12, 2-(2-Chloro-4-fluorophenoxy)-2-methyl-N-[(E)-5-(methylsulfonyl)-2-adamantyl]propanethioamide]",10 to 100
13,"CON=C(NC1C2CC3CC1CC(S(C)(=O)=O)(C3)C2)C(C)(C)Oc1ccc(Cl)cc1 (stereo not drawn) [Example 13, (1E)-2-(4-Chlorophenoxy)-N-methoxy-2-methyl-N-[(E)-5-(methylsulfonyl)-2-adamantyl]propanimidamide]",100 to 1000
14,"CC(C)(Oc1ccc(Cl)cc1)C(=NC#N)NC1C2CC3CC1CC(C(N)=O)(C3)C2 (stereo not drawn) [Example 14, (E)-4-{[(1E)-2-(4-Chlorophenoxy)-N-cyano-2-methylpropanimidoyl]amino}adamantane-1-carboxamide]",≤ 10
15,"N#CN=C(NC1C2CC3CC1CC(O)(C3)C2)C1(Oc2cccc(Cl)c2)CCC1 (stereo not drawn) [Example 15, 1-(3-Chlorophenoxy)-N′-cyano-N-[(E)-5-hydroxy-2-adamantyl]cyclobutane carboximidamide]",100 to 1000
16,"COC(=O)C12CC3CC(C1)C(NC(=S)C(C)(C)OCc1ccc(C(F)(F)F)cc1)C(C3)C2 (stereo not drawn) [Example 16, Methyl(E)-4-[(2-methyl-2-{[4-(trifluoromethyl)benzyl]oxy}propanethioyl)amino]adamantane-1-carboxylate]",100 to 1000
17,"COC(=O)C12CC3CC(C1)C(NC(=NC#N)C(C)(C)OCc1ccc(C(F)(F)F)cc1)C(C3)C2 (stereo not drawn) [Example 17, Methyl(E)-4-[((1E)-N-cyano-2-methyl-2-{[4-(trifluoromethyl)benzyl]oxy}propanimidoyl)amino]adamantane-1-carboxylate]",100 to 1000
18,"CC(C)(Oc1ccc(F)cc1Cl)/C(=N\C#N)NC1C2CC3CC1CC(S(C)(=O)=O)(C3)C2 (stereo not drawn) [Example 18, (1E)-2-(2-Chloro-4-fluorophenoxy)-N-cyano-2-methyl-N-[(E)-5-(methylsulfonyl)-2-adamantyl]propanimidamide]",10 to 100

# Second part, the molecule after the results:
row,Ki [nM],Compound
1,10 to 100,"CC(C)(Oc1ccc(Cl)cc1)C(=NC#N)NC1C2CC3CC1CC(S(C)(=O)=O)(C3)C2 (stereo not drawn) [Example 19, (1E)-2-(4-Chlorophenoxy)-N-cyano-2-methyl-N-[(E)-5-(methylsulfonyl)-2-adamantyl]propanimidamide]"
2,10 to 100,"COC(=O)C12CC3CC(C1)C(NC(=S)C(C)(C)N1CCN(c4ccc(C(F)(F)F)cn4)CC1)C(C3)C2 (stereo not drawn) [Example 21, Methyl(E)-4-[(2-methyl-2-{4-[5-(trifluoromethyl)pyridin-2-yl]piperazin-1-yl}propanethioyl)amino]adamantane-1-carboxylate]"
3,> 1000,"CC(C)(Cc1ccc(Cl)cc1)C(=N)NC1C2CC3CC1CC(O)(C3)C2 (stereo not drawn) [Example 22, 3-(4-Chlorophenyl)-N-[(E)-5-hydroxy-2-adamantyl]-2,2-dimethylpropanimidamide]"
4,100 to 1000,"CC(C)(Cc1ccc(Cl)cc1)C(=NC#N)NC1C2CC3CC1CC(O)(C3)C2 (stereo not drawn) [Example 23, (1E)-3-(4-Chlorophenyl)-N′-cyano-N-[(E)-5-hydroxy-2-adamantyl]-2,2-dimethyl propanimidamide]"
5,10 to 100,"CC(C)(OCc1ccc(C(F)(F)F)cc1)C(=NC#N)NC1C2CC3CC1CC(C(=O)O)(C3)C2 (stereo not drawn) [Example 24, (E)-4-[((1E)-N-Cyano-2-methyl-2-{[4-(trifluoromethyl)benzyl]oxy}propanimidoyl)amino]adamantane-1-carboxylic acid]"
6,10 to 100,"CC(C)(OCc1ccc(C(F)(F)F)cc1)/C(=N\C#N)N[C@@H]1[C@@H]2C[C@@H]3C[C@H]1C[C@@](C(N)=O)(C3)C2 [Example 25, (E)-4-[((1E)-N-Cyano-2-methyl-2-{[4-(trifluoromethyl)benzyl]oxy}propanimidoyl)amino]adamantane-1-carboxamide]"
7,≤ 10,"CC(C)(OCc1ccc(C(F)(F)F)cc1)C(=NC#N)NC1C2CC3CC1CC(C#N)(C3)C2 (stereo not drawn) [Example 27, (1E)-N-Cyano-N-[(E)-5-cyano-2-adamantyl]-2-methyl-2-{[4-(trifluoromethyl)benzyl]oxy}propanimidamide]"
8,100 to 1000,"COC(=O)C12CC3CC(C1)C(NC(=NC#N)C(C)(C)OCc1ccc(OC)cc1)C(C3)C2 (stereo not drawn) [Example 28, Methyl(E)-4-({(1E)-N-cyano-2-[(4-methoxybenzyl)oxy]-2-methylpropanimidoyl}amino)adamantane-1-carboxylate]"
9,100 to 1000,"COC(=O)C12CC3CC(C1)C(NC(=NC#N)C(C)(C)N1CCN(c4ccc(C(F)(F)F)cn4)CC1)C(C3)C2 (stereo not drawn) [Example 29, Methyl(E)-4-[((1E)-N-cyano-2-methyl-2-{4-[5-(trifluoromethyl)pyridin-2-yl]piperazin-1-yl}propanimidoyl)amino]adamantane-1-carboxylate]"

# From patent US8507493B2 (AbbVie Inc., priority 2009, dated 2013)
